# In patent publication US20070251020A1, “Fungicidal compositions and methods of using the same” (priority 2006, published 2007):
# Legend:
# Type in all cases: cell-based
# [1] = system: Aspergillus niger; assay: Screening for anti-fungal activity in mineral-salts glucose medium, visual growth / no growth; parameters: key: −: no growth; +: slight growth; ++: moderate growth; +++: heavy growth; ++++: very heavy growth; conditions: 25° C.
# Description: The pH of the medium was adjusted to 6 with 1N NaOH. The medium was distributed in 50 ml amounts into 250 ml flasks and autoclaved at 121° C. for 20 minutes. The test fungus, Aspergillus niger, was grown on potato dextrose agar for 7-10 days. A spore/hyphal suspension of the fungus was prepared by washing down the spores/hyphae from the slant with sterile saline into a bottle containing 30 ml sterile saline and shaken. The chemicals were added to the sterile mineral-salts medium in the desired concentrations, and each flask was inoculated with a suspension of the fungal suspension to give a final fungal count of approximately 1×10^6 cfu/ml. The inoculated samples were incubated at 25° C. and inspected visually for growth or no growth at 7 and 14 days.
# [2] = system: Aspergillus niger; assay: Wet blue pieces dipped in active substance, exposed to airborne spores in petri-dish growth chambers; parameters: key to GROWTH Wk. 1 / GROWTH Wk. 2 / GROWTH Wk. 3 / GROWTH Wk. 4 / GROWTH Wk. 5 / GROWTH Wk. 6 / GROWTH Wk. 7: 0: no growth on surface; +: less than half of surface covered with mold; ++: about half of surface covered with mold; +++: about ¾ of surface covered with mold; ++++: the whole surface covered with mold; conditions: for performance against Aspergillus niger on wet blue compared with the controls: wet blue dipped in 0.5% or 0.25% (by wt) mixtures
# Description: Sodium omadine was included among the substances tested, as a positive control. The test organism, Aspergillus niger, was grown on potato dextrose agar for 5-days in petri-dishes. The wet blue pieces were placed on top of pieces of bent glass rod, thereby preventing direct contact with the “lawn” of Aspergillus niger. Thus, exposure of the wet blue to Aspergillus niger was limited to airborne spores, simulating one of the most common modes of exposure experienced in practice. For each active substance and concentration studied, wet blue pieces were suspended both grain side up and flesh side up. A bottom half of a petri-dish was used as a cover to provide a growth chamber for each sample. These growth chambers were incubated at 25° C. and evaluated weekly to determine the degree of fungal infestation on the wet blue surfaces.
# [3] = system: Penicillium sp.; assay: Wet blue pieces dipped in active substance, mold exposure in petri-dishes, industrial isolate; parameters: key to GROWTH Wk. 1 / GROWTH Wk. 2 / GROWTH Wk. 3 / GROWTH Wk. 4 / GROWTH Wk. 5 / GROWTH Wk. 7 / GROWTH Wk. 8 / GROWTH Wk. 9: 0: no growth on surface; +: less than half of surface covered with mold; ++: about half of surface covered with mold; +++: about ¾ of surface covered with mold; ++++: the whole surface covered with mold
# Description: One inch square pieces of wet blue that had not been previously treated with fungicide were dipped in either 0.5% or 0.25% (by wt) mixtures of each active substance in water. Sodium omadine was included among the substances tested, as a positive control. The test organism, Aspergillus niger, was grown on potato dextrose agar for 5-days in petri-dishes. The wet blue pieces were placed on top of pieces of bent glass rod, thereby preventing direct contact with the “lawn” of Aspergillus niger. Thus, exposure of the wet blue to Aspergillus niger was limited to airborne spores, simulating one of the most common modes of exposure experienced in practice. For each active substance and concentration studied, wet blue pieces were suspended both grain side up and flesh side up. A bottom half of a petri-dish was used as a cover to provide a growth chamber for each sample. These growth chambers were incubated at 25° C. and evaluated weekly to determine the degree of fungal infestation on the wet blue surfaces.
# Some of the minimum risk fungicides identified above were further tested against an industrial isolate of Penicillium sp, as shown in Table 3. This particular “wild strain” of Penicillium was isolated from commercial wet blue that was seriously contaminated with mold. […] Once again, one inch square pieces of wet blue were dipped in mixtures of active substances in water—this time at 1% and 0.5% concentrations. The mold exposure was carried out in petri-dishes as in EXAMPLE 2, but with Penicillium sp. as the test organism.
smiles,measurement,setting,value
O=C(O)CC(O)(CC(=O)O)C(=O)O [Citric acid],GROWTH 7-days,[1]; 0.5% by wt.,−
same,GROWTH 14-days,[1]; 0.5% by wt.,−
same,GROWTH 7-days,[1]; 1% by wt.,−
same,GROWTH 14-days,[1]; 1% by wt.,−
O=C([O-])c1ccccc1.[Na+] [Sodium benzoate],GROWTH 7-days,[1]; 0.5% by wt.,++
same,GROWTH 7-days,[1]; 1% by wt.,+
CCC(=O)OCCc1ccccc1 [2-Phenylethyl propionate],GROWTH 7-days,[1]; 1% by wt.,−
same,GROWTH 14-days,[1]; 1% by wt.,−
same,performance against Aspergillus niger on wet blue compared with the controls,[2]; petri-dishes,no better than the controls
"[Na+].[O-][n+]1ccccc1[S-] [Sodium omadine, reference compound]",GROWTH Wk. 1,[2]; 0.05% (flesh),0
same,GROWTH Wk. 2,[2]; 0.05% (flesh),0
same,GROWTH Wk. 3,[2]; 0.05% (flesh),0
same,GROWTH Wk. 4,[2]; 0.05% (flesh),0
same,GROWTH Wk. 5,[2]; 0.05% (flesh),0
same,GROWTH Wk. 6,[2]; 0.05% (flesh),0
same,GROWTH Wk. 7,[2]; 0.05% (flesh),0
same,GROWTH Wk. 1,[2]; 0.05% (grain),0
same,GROWTH Wk. 2,[2]; 0.05% (grain),0
same,GROWTH Wk. 3,[2]; 0.05% (grain),0
same,GROWTH Wk. 4,[2]; 0.05% (grain),0
same,GROWTH Wk. 5,[2]; 0.05% (grain),0
same,GROWTH Wk. 6,[2]; 0.05% (grain),0
same,GROWTH Wk. 7,[2]; 0.05% (grain),0
C/C=C/C=C/C(=O)[O-].[K+] [Potassium sorbate],GROWTH 7-days,[1]; 0.5% by wt.,−
same,GROWTH 14-days,[1]; 0.5% by wt.,+++
same,GROWTH 7-days,[1]; 1% by wt.,−
same,GROWTH 14-days,[1]; 1% by wt.,−
CCCCCCCCCCCCOS(=O)(=O)[O-].[Na+] [Sodium lauryl sulfate],GROWTH Wk. 1,[3]; 0.5% (flesh),0
same,GROWTH Wk. 2,[3]; 0.5% (flesh),0
same,GROWTH Wk. 3,[3]; 0.5% (flesh),0
same,GROWTH Wk. 4,[3]; 0.5% (flesh),+
same,GROWTH Wk. 5,[3]; 0.5% (flesh),++
same,GROWTH Wk. 7,[3]; 0.5% (flesh),++++
same,GROWTH Wk. 8,[3]; 0.5% (flesh),++++
same,GROWTH Wk. 9,[3]; 0.5% (flesh),++++
same,GROWTH Wk. 1,[3]; 0.5% (grain),0
same,GROWTH Wk. 2,[3]; 0.5% (grain),0
same,GROWTH Wk. 3,[3]; 0.5% (grain),+
same,GROWTH Wk. 4,[3]; 0.5% (grain),++++
same,GROWTH Wk. 5,[3]; 0.5% (grain),++++
same,GROWTH Wk. 7,[3]; 0.5% (grain),++++
same,GROWTH Wk. 8,[3]; 0.5% (grain),++++
same,GROWTH Wk. 9,[3]; 0.5% (grain),++++
same,GROWTH Wk. 1,[3]; 1% (flesh),0
same,GROWTH Wk. 2,[3]; 1% (flesh),0
same,GROWTH Wk. 3,[3]; 1% (flesh),0
same,GROWTH Wk. 4,[3]; 1% (flesh),0
same,GROWTH Wk. 5,[3]; 1% (flesh),+
same,GROWTH Wk. 7,[3]; 1% (flesh),++++
same,GROWTH Wk. 8,[3]; 1% (flesh),++++
same,GROWTH Wk. 9,[3]; 1% (flesh),++++
same,GROWTH Wk. 1,[3]; 1% (grain),0
same,GROWTH Wk. 2,[3]; 1% (grain),0
same,GROWTH Wk. 3,[3]; 1% (grain),0
same,GROWTH Wk. 4,[3]; 1% (grain),0
same,GROWTH Wk. 5,[3]; 1% (grain),0
same,GROWTH Wk. 7,[3]; 1% (grain),0
same,GROWTH Wk. 8,[3]; 1% (grain),0
same,GROWTH Wk. 9,[3]; 1% (grain),0
same,resistance of treated wet blue compared with unprotected controls,"[3]; wet blue dipped at 1% and 0.5%, Prosan 18 as positive control",substantially improved over the unprotected controls
same,GROWTH 7-days,[1]; 0.5% by wt.,−
same,GROWTH 14-days,[1]; 0.5% by wt.,−
same,GROWTH 7-days,[1]; 1% by wt.,−
same,GROWTH 14-days,[1]; 1% by wt.,−
same,GROWTH Wk. 1,[2]; 0.25% (flesh),0
same,GROWTH Wk. 2,[2]; 0.25% (flesh),0
same,GROWTH Wk. 3,[2]; 0.25% (flesh),0
same,GROWTH Wk. 4,[2]; 0.25% (flesh),0
same,GROWTH Wk. 5,[2]; 0.25% (flesh),0
same,GROWTH Wk. 6,[2]; 0.25% (flesh),0
same,GROWTH Wk. 7,[2]; 0.25% (flesh),++
same,GROWTH Wk. 1,[2]; 0.25% (grain),0
same,GROWTH Wk. 2,[2]; 0.25% (grain),0
same,GROWTH Wk. 3,[2]; 0.25% (grain),0
same,GROWTH Wk. 4,[2]; 0.25% (grain),0
same,GROWTH Wk. 5,[2]; 0.25% (grain),0
same,GROWTH Wk. 6,[2]; 0.25% (grain),0
same,GROWTH Wk. 7,[2]; 0.25% (grain),++
same,GROWTH Wk. 1,[2]; 0.5% (flesh),0
same,GROWTH Wk. 2,[2]; 0.5% (flesh),0
same,GROWTH Wk. 3,[2]; 0.5% (flesh),0
same,GROWTH Wk. 4,[2]; 0.5% (flesh),0
same,GROWTH Wk. 5,[2]; 0.5% (flesh),0
same,GROWTH Wk. 6,[2]; 0.5% (flesh),0
same,GROWTH Wk. 7,[2]; 0.5% (flesh),0
same,GROWTH Wk. 1,[2]; 0.5% (grain),0
same,GROWTH Wk. 2,[2]; 0.5% (grain),0
same,GROWTH Wk. 3,[2]; 0.5% (grain),0
same,GROWTH Wk. 4,[2]; 0.5% (grain),0
same,GROWTH Wk. 5,[2]; 0.5% (grain),0
same,GROWTH Wk. 6,[2]; 0.5% (grain),0
same,GROWTH Wk. 7,[2]; 0.5% (grain),+
same,duration of protection of wet blue,"[2]; at the concentration tested, petri-dishes",six to seven
CC(C)=CCC/C(C)=C/CO [Geraniol],GROWTH 7-days,[1]; 0.5% by wt.,−
same,GROWTH 14-days,[1]; 0.5% by wt.,−
same,GROWTH 7-days,[1]; 1% by wt.,−
same,GROWTH 14-days,[1]; 1% by wt.,−
same,performance against Aspergillus niger on wet blue compared with the controls,[2]; petri-dishes,no better than the controls
C=CCc1ccc(O)c(OC)c1 [Eugenol],GROWTH 7-days,[1]; 0.5% by wt.,−
same,GROWTH 14-days,[1]; 0.5% by wt.,−
same,GROWTH 7-days,[1]; 1% by wt.,−
same,GROWTH 14-days,[1]; 1% by wt.,−
same,performance against Aspergillus niger on wet blue compared with the controls,[2]; petri-dishes,no better than the controls
"O=C([O-])c1ccccc1O.[Na+] [Sodium salicylate, reference compound]",GROWTH 7-days,[1]; 0.5% by wt.,++++
same,GROWTH 7-days,[1]; 1% by wt.,++++
"CC(=O)c1c([O-])cc(C)oc1=O.[Na+] [Sodium dehydroacetate, reference compound]",GROWTH 7-days,[1]; 0.5% by wt.,−
same,GROWTH 14-days,[1]; 0.5% by wt.,−
same,GROWTH 7-days,[1]; 1% by wt.,−
same,GROWTH 14-days,[1]; 1% by wt.,−
